In the NIST ThermoML archive (doi:10.1016/j.jct.2007.04.002):

What was measured:
[1] = 101.33 kPa, Liquid, Not reported.
[2] = excess molar enthalpy (molar enthalpy of mixing); xn = mol fraction of the nth substance listed; conditions: 101 kPa, Liquid, Calvet calorimetry

CCCCCC(C)C [2-methylheptane]
[1]
Conditions	molar volume [m3/mol]
288.05 K	0.0001626
298.15 K	0.0001636

CCCCCC(C)C [2-methylheptane] + FC(F)(F)C(F)(F)C(F)(F)C(F)(F)C(F)(F)C(F)(F)F
excess molar enthalpy [kcal/mol], [2]
Conditions	288.05 K	298.15 K
x2 = 0	0	0
x2 = 0.05	0.124	0.129
x2 = 0.1	0.223	0.231
x2 = 0.15	0.3	0.313
x2 = 0.2	0.359	0.376
x2 = 0.25	0.404	0.425
x2 = 0.3	0.438	0.462
x2 = 0.35	0.462	0.488
x2 = 0.4	0.478	0.506
x2 = 0.45	0.488	0.516
x2 = 0.5	0.491	0.52
x2 = 0.55	0.488	0.516
x2 = 0.6	0.478	0.505
x2 = 0.65	0.461	0.487
x2 = 0.7	0.436	0.46
x2 = 0.75	0.401	0.422
x2 = 0.8	0.354	0.372
x2 = 0.85	0.293	0.307
x2 = 0.9	0.216	0.226
x2 = 0.95	0.119	0.124

C1CCCCC1 [cyclohexane]
Conditions	molar volume [m3/mol]
[1], 298.15 K	0.0001086

C1CCCCC1 [cyclohexane] + FC(F)(F)C(F)(F)C(F)(F)C(F)(F)C(F)(F)C(F)(F)F
Conditions	excess molar enthalpy [kcal/mol]
[2], 298.15 K, x2 = 0	0

CCCCCCC [heptane] + FC(F)(F)C(F)(F)C(F)(F)C(F)(F)C(F)(F)C(F)(F)F
Conditions	excess molar enthalpy [kcal/mol]
[2], 298.15 K, x2 = 0	0

FC(F)(F)C(F)(F)C(F)(F)C(F)(F)C(F)(F)C(F)(F)C(F)(F)F [hexadecafluoroheptane] + CCCCCC
[2], 298.15 K
Conditions	excess molar enthalpy [kcal/mol]
x1 = 0.05	0.15
x1 = 0.1	0.258
x1 = 0.15	0.335
x1 = 0.2	0.39
x1 = 0.25	0.429
x1 = 0.3	0.456
x1 = 0.35	0.474
x1 = 0.4	0.487
x1 = 0.45	0.495
x1 = 0.5	0.497
x1 = 0.55	0.495
x1 = 0.6	0.485
x1 = 0.65	0.467
x1 = 0.7	0.439
x1 = 0.75	0.4
x1 = 0.8	0.348
x1 = 0.85	0.281
x1 = 0.9	0.201
x1 = 0.95	0.107
x1 = 1	0

CCCCCC [hexane] + FC(F)(F)C(F)(F)C(F)(F)C(F)(F)C(F)(F)C(F)(F)C(F)(F)C(F)(F)F
Conditions	excess molar enthalpy [kcal/mol]
[2], 298.15 K, x2 = 0	0

CCCCCC [hexane] + FC(F)(F)C(F)(F)C(F)(F)C(F)(F)C(F)(F)C(F)(F)C(F)(F)F
Conditions	excess molar enthalpy [kcal/mol]
[2], 298.15 K, x2 = 0	0

CCCCCC [hexane] + FC(F)(F)C(F)(F)C(F)(F)C(F)(F)C(F)(F)C(F)(F)F
Conditions	excess molar enthalpy [kcal/mol]
[2], 298.15 K, x2 = 0	0

CCCCCC [hexane] + FC(F)(F)C(F)(F)C(F)(F)C(F)(F)C(F)(F)F
Conditions	excess molar enthalpy [kcal/mol]
[2], 293.15 K, x2 = 0	0

FC(F)(F)C(F)(F)C(F)(F)C(F)(F)C(F)(F)C(F)(F)C(F)(F)C(F)(F)F [octadecafluorooctane] + CCCCCC
[2], 298.15 K
Conditions	excess molar enthalpy [kcal/mol]
x1 = 0.05	0.183
x1 = 0.1	0.303
x1 = 0.15	0.379
x1 = 0.2	0.422
x1 = 0.25	0.445
x1 = 0.3	0.455
x1 = 0.35	0.456
x1 = 0.4	0.453
x1 = 0.45	0.448
x1 = 0.5	0.44
x1 = 0.55	0.43
x1 = 0.6	0.415
x1 = 0.65	0.394
x1 = 0.7	0.366
x1 = 0.75	0.327
x1 = 0.8	0.279
x1 = 0.85	0.22
x1 = 0.9	0.152
x1 = 0.95	0.0767
x1 = 1	0

CCCCCCCC [octane] + FC(F)(F)C(F)(F)C(F)(F)C(F)(F)C(F)(F)C(F)(F)F
Conditions	excess molar enthalpy [kcal/mol]
[2], 298.15 K, x2 = 0	0

CCCCC [pentane] + FC(F)(F)C(F)(F)C(F)(F)C(F)(F)C(F)(F)C(F)(F)F
Conditions	excess molar enthalpy [kcal/mol]
[2], 293.15 K, x2 = 0	0

FC(F)(F)C(F)(F)C(F)(F)C(F)(F)C(F)(F)C(F)(F)F [perfluorohexane]
Conditions	molar volume [m3/mol]
[1], 288.05 K	0.0001982

FC(F)(F)C(F)(F)C(F)(F)C(F)(F)C(F)(F)C(F)(F)F [perfluorohexane] + C1CCCCC1
[2], 298.15 K
Conditions	excess molar enthalpy [kcal/mol]
x1 = 0.05	0.177
x1 = 0.1	0.301
x1 = 0.15	0.385
x1 = 0.2	0.44
x1 = 0.25	0.475
x1 = 0.3	0.498
x1 = 0.35	0.513
x1 = 0.4	0.522
x1 = 0.45	0.528
x1 = 0.5	0.53
x1 = 0.55	0.528
x1 = 0.6	0.519
x1 = 0.65	0.503
x1 = 0.7	0.476
x1 = 0.75	0.436
x1 = 0.8	0.382
x1 = 0.85	0.311
x1 = 0.9	0.224
x1 = 0.95	0.12
x1 = 1	0

FC(F)(F)C(F)(F)C(F)(F)C(F)(F)C(F)(F)C(F)(F)F [perfluorohexane] + CCCCC
[2], 293.15 K
Conditions	excess molar enthalpy [kcal/mol]
x1 = 0.05	0.127
x1 = 0.1	0.225
x1 = 0.15	0.3
x1 = 0.2	0.357
x1 = 0.25	0.399
x1 = 0.3	0.431
x1 = 0.35	0.453
x1 = 0.4	0.467
x1 = 0.45	0.475
x1 = 0.5	0.476
x1 = 0.55	0.47
x1 = 0.6	0.457
x1 = 0.65	0.435
x1 = 0.7	0.405
x1 = 0.75	0.365
x1 = 0.8	0.315
x1 = 0.85	0.253
x1 = 0.9	0.18
x1 = 0.95	0.0954
x1 = 1	0

FC(F)(F)C(F)(F)C(F)(F)C(F)(F)C(F)(F)C(F)(F)F [perfluorohexane] + CCCCCC
[2], 298.15 K
Conditions	excess molar enthalpy [kcal/mol]
x1 = 0.05	0.133
x1 = 0.1	0.235
x1 = 0.15	0.313
x1 = 0.2	0.372
x1 = 0.25	0.416
x1 = 0.3	0.45
x1 = 0.35	0.473
x1 = 0.4	0.49
x1 = 0.45	0.5
x1 = 0.5	0.503
x1 = 0.55	0.5
x1 = 0.6	0.489
x1 = 0.65	0.469
x1 = 0.7	0.441
x1 = 0.75	0.401
x1 = 0.8	0.35
x1 = 0.85	0.285
x1 = 0.9	0.205
x1 = 0.95	0.11
x1 = 1	0

FC(F)(F)C(F)(F)C(F)(F)C(F)(F)C(F)(F)C(F)(F)F [perfluorohexane] + CCCCCC(C)C
[2], x1 = 1
Conditions	excess molar enthalpy [kcal/mol]
288.05 K	0
298.15 K	0

FC(F)(F)C(F)(F)C(F)(F)C(F)(F)C(F)(F)C(F)(F)F [perfluorohexane] + CCCCCCC
[2], 298.15 K
Conditions	excess molar enthalpy [kcal/mol]
x1 = 0.05	0.135
x1 = 0.1	0.24
x1 = 0.15	0.321
x1 = 0.2	0.382
x1 = 0.25	0.429
x1 = 0.3	0.463
x1 = 0.35	0.487
x1 = 0.4	0.504
x1 = 0.45	0.513
x1 = 0.5	0.516
x1 = 0.55	0.513
x1 = 0.6	0.503
x1 = 0.65	0.485
x1 = 0.7	0.459
x1 = 0.75	0.421
x1 = 0.8	0.371
x1 = 0.85	0.307
x1 = 0.9	0.225
x1 = 0.95	0.124
x1 = 1	0

FC(F)(F)C(F)(F)C(F)(F)C(F)(F)C(F)(F)C(F)(F)F [perfluorohexane] + CCCCCCCC
[2], 298.15 K
Conditions	excess molar enthalpy [kcal/mol]
x1 = 0.05	0.137
x1 = 0.1	0.24
x1 = 0.15	0.315
x1 = 0.2	0.368
x1 = 0.25	0.404
x1 = 0.3	0.428
x1 = 0.35	0.443
x1 = 0.4	0.452
x1 = 0.45	0.457
x1 = 0.5	0.458
x1 = 0.55	0.457
x1 = 0.6	0.452
x1 = 0.65	0.442
x1 = 0.7	0.426
x1 = 0.75	0.401
x1 = 0.8	0.363
x1 = 0.85	0.309
x1 = 0.9	0.234
x1 = 0.95	0.133
x1 = 1	0

FC(F)(F)C(F)(F)C(F)(F)C(F)(F)C(F)(F)F [perfluoropentane] + CCCCCC
[2], 293.15 K
Conditions	excess molar enthalpy [kcal/mol]
x1 = 0.05	0.127
x1 = 0.1	0.224
x1 = 0.15	0.298
x1 = 0.2	0.352
x1 = 0.25	0.392
x1 = 0.3	0.42
x1 = 0.35	0.439
x1 = 0.4	0.451
x1 = 0.45	0.456
x1 = 0.5	0.455
x1 = 0.55	0.449
x1 = 0.6	0.436
x1 = 0.65	0.416
x1 = 0.7	0.388
x1 = 0.75	0.352
x1 = 0.8	0.305
x1 = 0.85	0.248
x1 = 0.9	0.178
x1 = 0.95	0.0956
x1 = 1	0
